Like-named read-outs stand apart in the source and are kept apart here.
Tests used:
K2P2.1 (TREK-1) = target: T1, K2P2.1 (TREK-1) (Mus musculus, UniProt P97438); assay: Two-electrode voltage clamp of Xenopus oocytes expressing K2P2.1 (TREK-1); assay type: cell-based, Murine; details: two-electrode voltage clamp, Xenopus oocytes
T1 construct: expressed in transfected cells; host or cells: Xenopus oocytes (cRNA injection, pGEMHE/pMO)
T1 sequence (P97438 1-411 isoform P97438-2): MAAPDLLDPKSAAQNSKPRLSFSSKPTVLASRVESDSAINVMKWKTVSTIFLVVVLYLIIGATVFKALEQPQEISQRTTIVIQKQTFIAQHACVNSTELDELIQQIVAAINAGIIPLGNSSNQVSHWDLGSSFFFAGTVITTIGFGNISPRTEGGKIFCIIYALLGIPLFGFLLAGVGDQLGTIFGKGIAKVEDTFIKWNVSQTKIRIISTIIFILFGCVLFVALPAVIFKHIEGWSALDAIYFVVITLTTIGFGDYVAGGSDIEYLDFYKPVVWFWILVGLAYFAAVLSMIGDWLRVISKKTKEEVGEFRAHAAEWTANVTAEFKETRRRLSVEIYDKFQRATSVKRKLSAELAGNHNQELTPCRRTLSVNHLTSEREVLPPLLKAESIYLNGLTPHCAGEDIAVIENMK
Experimental: Two-electrode voltage clamp recordings were performed from defolliculated stage V-VI Xenopus oocytes 24-48 hours after injection with 0.015-6.0 ng cRNA, using microelectrodes (0.3-3.0 MΩ) filled with 3M KCl. […] Recording solutions (mM): 2K (96 NaCl, 2 KCl, 1.8 CaCl2, 2 MgCl2), 90K (90 KCl, 8 NaCl, 1.8 CaCl2, 2 MgCl2), were buffered 5 mM HEPES pH 7.4. For K2P recordings, currents we elicited by a 1 second long ramp from −150 to +50 mV from a holding potential of −80 mV (2K), or −100 to +50 mV from a holding potential of 0 mV (90K). For KCNQ2 recordings, currents were elicited by a step protocol from −120 to 60 mV, in 20 mV increments, from a holding potential of −80 mV. […] Currents were elicited by a 1 second long ramp from −150 to +50 mV from a holding potential of −80 mV.

TREK-1 = target: T2, TREK-1 (Mus musculus, UniProt P97438); assay: Antagonist compound examples, modulation of TREK-1 (current inhibition), Table 5; assay type: cell-based, Murine
T2 construct: expressed in transfected cells
T2 sequence (P97438 1-411 isoform P97438-2): T1 sequence (P97438 1-411 isoform P97438-2)
Experimental: Two-electrode voltage clamp recordings were performed from defolliculated stage V-VI Xenopus oocytes 24-48 hours after injection with 0.015-6.0 ng cRNA, using microelectrodes (0.3-3.0 MΩ) filled with 3M KCl. Data was acquired using the GeneClamp 500B (MDS Analytical Technologies) amplifier controlled by the pClamp software (Molecular Devices), and digitized at 1 kHz using Digidata 1332A (MDS Analytical Technologies). Recording solutions (mM): 2K (96 NaCl, 2 KCl, 1.8 CaCl2, 2 MgCl2), 90K (90 KCl, 8 NaCl, 1.8 CaCl2, 2 MgCl2), were buffered 5 mM HEPES pH 7.4. For K2P recordings, currents we elicited by a 1 second long ramp from −150 to +50 mV from a holding potential of −80 mV (2K), or −100 to +50 mV from a holding potential of 0 mV (90K). For KCNQ2 recordings, currents were elicited by a step protocol from −120 to 60 mV, in 20 mV increments, from a holding potential of −80 mV. Patch-clamp recordings from HEK-293T cells were performed using microelectrodes (2-3 MΩ) filled with 1M KCl. Data was acquired using the Axopatch 200B amplifier controlled by pClamp software, and digitized at 1 kHz using Digidata 1332A. Recording solutions (mM): intracellular (145 KCl, 5 EGTA, 3 MgCl2,) extracellular (150 NaCl, 5 KCl, 3 MgCl2, 1 CaCl2) were buffered with 5 mM HEPES pH 7.2 and 7.4, respectively. Currents were elicited by a 1 second long ramp from −150 to +50 mV from a holding potential of −80 mV. Data were fitted with a modified Hill's equation: I=Imin+(Imax−Imin)/(1+10^((Log EC50−Log [C])*H)), where Imax and Imin are maximal and minimal current values, respectively, EC50 is a half-maximal effective concentration of the compound, and H is the Hill coefficient.

[1] = 25 μM, 0 mV, read-out: inhibition at 25 μM at 0 mV

| Structure (SMILES) | effect on K2P2.1 (TREK-1) function / activity (in words) (K2P2.1 (TREK-1)) | inhibition at 25 µM (TREK-1; read-out: current inhibition at 25 μM) [%] | inhibition at 25 µM (TREK-1; [1]) [%] |
| --- | --- | --- | --- |
| Cc1cccc(-n2ncc3c(NCCc4ccccc4)ncnc32)c1 [ML45, 1-(3-methylpyhenyl)-N-(2-phenylethyl)-1H-pyrazolo[3,4-d]pyrimidin-4-amine] | inhibitors | ~30 |  |
| c1ccc(CCNc2ncnc3c2cnn3-c2ccccc2)cc1 [ML45-1, 1-phenyl-N-(2-phenylethyl)-1H-pyrazolo[3,4-d]pyrimidin-4-amine] |  |  | 22.5 |
| Cc1ccc(-n2ncc3c(NCCc4ccccc4)ncnc32)cc1 [ML45-2, 1-(4-methylphenyl)-N-(2-phenylethyl)-1H-pyrazolo[3,4-d]pyrimidin-4-amine] |  |  | 25.2 |
| Cc1ccc(-n2ncc3c(NCCc4ccccc4)ncnc32)cc1C [ML45-3, 1-(3,4-dimethylphenyl)-N-(2-phenylethyl)-1H-pyrazolo[3,4-d]pyrimidin-4-amine] |  |  | 31.9 |
| Clc1ccc(-n2ncc3c(NCCc4ccccc4)ncnc32)cc1 [ML45-4, 1-(4-chlorophenyl)-N-(2-phenylethyl)-1H-pyrazolo[3,4-d]pyrimidin-4-amine] |  |  | 20.7 |
| Cc1cccc(-n2ncc3c(NCCc4ccc(S(N)(=O)=O)cc4)ncnc32)c1 [ML45-5, 4-(2-{[1-(3-methylphenyl)-1H-pyrazolo[3,4-d]pyrimidin-4-yl]amino}ethyl)benzene-1-sulfonamide] |  |  | 2.7 |

— patent US9862684B2, “Modulation of K2P channels” (The Regents of the University of California, priority 2013, dated 2018)
